Source: patent US20250228865A1, “COMPOUNDS FOR ENHANCING READ THROUGH OF GENES CONTAINING PREMATURE TERMINATION CODONS AND METHODS FOR MAKING AND USING THE SAME” (Sanofi US Services Inc., priority 2022, published 2025)
pEC50: −log10 of the molar value.

How the values were obtained:
[1] = system: recombinant human CFTR carrying the premature stop codon (PTC) mutation G542X; test: CFTR-PTC mutant translation readthrough, Nanoluc tagged CFTR luminescence (G542X cell line); type: cell-based; settings: in combination with G418, G542X cell line; for CFTR G542X ACTIVITY Fold 10 μM G-418: fold over 10 μM G-418; for pEC50: 16HBE cells
Description: 16HBE human bronchial epithelial cells (stably over-expressing recombinant human CFTR carrying the premature stop codon (PTC) mutation G542X or R1162X along with a Nanoluc tag incorporated into the CFTR channel within extracellular loop 4 in G542X cell line or C-terminus end in the R1162X cell line were seeded at 0.01×10^6 cells/well and grown in Minimal Essential Medium (MEM) as monolayers in 384 well plates and incubated at 37° C. with 5% CO2. Media was changed every other day until day of experiment. Agents to be evaluated were made up in separate 384 well, polypropylene plates at a 2X the final desired test concentration. Test agent 10-point concentration response curves were constructed using the Labcyte Echo 555 acoustic dispenser. Test agents were typically tested at a max final test concentrations of 50 μM with sequential 2-fold lower concentrations below this in the absence or presence of a fixed 10 μM concentration of the aminoglycoside G418 made up in MEM growth media (reduced Serum Media+HEPES Buffer+2.4 g/L Sodium Bicarbonate+L-Glutamine containing CFTR corrector VX-809 (3 μM)). Treatment with 10 μM G418 alone produced approximately 10% of the response observed with a maximally effective concentration of G418 (typically 125-250 μM). Test agent effects in presence of 10 μM G418 were compared to control wells on the plate containing a maximally effective concentration of G418 (typically 125-250 μM) made up in the same media. 25 ul of test agents/control solutions were transferred from the compound plate to the cell plate, which already contained 25 ul/well of cell plating media, using an Integra Viaflo 384. Cell plates were incubated with the compounds for 48 hours, at which time they were processed using Nanoluc luminescence Kit (Promega Nano-Glo Live Cell Assay System) to measure CFTR-PTC mutant translation readthrough. Luminescence was measured as follows. Cell plates were removed from the incubator and allowed to equilibrate to room temperature for 20 minutes. Media was removed from all wells and the plates were blotted to remove excess remaining volume. Nano-Glo Live Cell Substrate was diluted 1:20 in the appropriate amount of Nano-Glo LCS Dilution Buffer to accommodate the number of cell plates being tested. The substrate/dilution buffer mix was then diluted 1:3 with MEM media to make the appropriate volume for the number of plates being tested. The substrate/dilution buffer/OptiMEM mix was added across the Nanoluc testing cell plates and the plates were read for luminescence signal immediately. Test agent effects on CFTR translation readthrough was determined by normalizing any observed increase in luminescence induced by 48 hours pretreatment with test compound to the magnitude of luminescence increase produced by pretreatment with a maximally effective concentration of the reference readthrough enhancing agent G418 (125-250 μM).

[2] = system: recombinant human CFTR carrying the premature stop codon (PTC) mutation R1162X; test: CFTR-PTC mutant translation readthrough, Nanoluc tagged CFTR luminescence (R1162X cell line); type: cell-based; settings: for CFTR R1162X ACTIVITY Fold 10 μM G-418: fold over 10 μM G-418, in combination with G418; for pEC50: in combination with G418, 16HBE cells, read-out: CFTR R1162X ACTIVITY EC50
How it was run: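 Readthrough is the 48 h compound-induced luminescence increase scaled to that of maximal G418 (125-250 μM). Compounds run from 50 μM final in 2-fold steps, ±10 μM G418, on 16HBE lines carrying Nanoluc-tagged CFTR G542X (extracellular loop 4 tag) or R1162X (C-terminal tag), with 3 μM VX-809 present.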

Row | SMILES | pEC50 [1] | pEC50 [2] | CFTR G542X ACTIVITY Fold 10 μM G-418 [1] | CFTR R1162X ACTIVITY Fold 10 μM G-418 [2]
1 | OCc1ccn(-c2ccc(OCc3c(Cl)cccc3Cl)cc2)n1 [[1-[4-[(2,6-dichlorophenyl)methoxy]phenyl]pyrazol-3-yl]methanol] | > 6.00 | 5.00 to 6.00 | A′ (A′ = ≥10X) | A′ (A′ = ≥10X)
2 | Cc1cccc(C(F)(F)F)c1COc1ccc(-n2cnc(CO)n2)cc1 | > 6.00 | > 6.00 | A′ (A′ = ≥10X) | A′ (A′ = ≥10X)
3 | O=C1CN(Cc2ccccc2)C(=O)N1c1ncc(OCc2ccccc2)cn1 [1-benzyl-3-(5-benzyloxypyrimidin-2-yl)imidazolidine-2,4-dione] | > 6.00 | 5.00 to 6.00 | A′ (A′ = ≥10X) | A′ (A′ = ≥10X)
4 | Cc1cccc(C(F)(F)F)c1COc1ccc(N2C(=O)NC(C(C)C)C2=O)cc1 (stereo not shown) | > 6.00 | 5.00 to 6.00 | A′ (A′ = ≥10X) | A′ (A′ = ≥10X)
5 | O=C1OCCN1c1ccc(OCc2c(Cl)cccc2Cl)cc1 [3-[4-[(2,6-dichlorophenyl)methoxy]phenyl]oxazolidin-2-one] | 5.00 to 6.00 | 5.00 to 6.00 | A′ (A′ = ≥10X) | B′ (B′ = ≥5X to <10X)
6 | OCc1cn(-c2ncc(OCc3c(Cl)cccc3Cl)cn2)cn1 [[1-[5-[(2,6-dichlorophenyl)methoxy]pyrimidin-2-yl]imidazol-4-yl]methanol] | > 6.00 | 5.00 to 6.00 | A′ (A′ = ≥10X) | A′ (A′ = ≥10X)
7 | [2H]C([2H])(O)c1ncn(-c2ccc(OC([2H])([2H])c3c(Cl)cccc3C(F)(F)F)cc2)n1 | > 6.00 | > 6.00 | C′ (C′ = <5X) | C′ (C′ = <5X)
8 | OCCn1cnc(Nc2ccc(OCc3c(Cl)cccc3Cl)cn2)n1 | 5.00 to 6.00 | 5.00 to 6.00 | A′ (A′ = ≥10X) | A′ (A′ = ≥10X)
9 | Cc1cccc(C(F)(F)F)c1COc1ccc(N2CCOC(CO)C2)cc1 (stereo not shown) | > 6.00 | 5.00 to 6.00 | A′ (A′ = ≥10X) | A′ (A′ = ≥10X)
10 | O=C1Cc2cc(NCc3c(Cl)cccc3Cl)ccc2C(=O)N1 [Compound 303, 6-[(2,6-dichlorophenyl)methylamino]-4H-isoquinoline-1,3-dione] | < 5.00 | < 5.00 | – | –
11 | OCCn1cc(-c2ccc(OCc3c(Cl)cccc3Cl)cc2)nn1 [2-[4-[4-[(2,6-dichlorophenyl)methoxy]phenyl]triazol-1-yl]ethanol] | 5.00 to 6.00 | 5.00 to 6.00 | B′ (B′ = ≥5X to <10X) | A′ (A′ = ≥10X)
12 | CC(=O)N[C@H](CO)C(=O)Nc1ccc(OCc2c(Cl)cccc2Cl)cn1 | < 5.00 | < 5.00 | C′ (C′ = <5X) | C′ (C′ = <5X)
13 | OCc1cc(-c2ccc(OCc3c(Cl)cccc3Cl)cc2)no1 [[3-[4-[(2,6-dichlorophenyl)methoxy]phenyl]isoxazol-5-yl]methanol] | 5.00 to 6.00 | 5.00 to 6.00 | A′ (A′ = ≥10X) | A′ (A′ = ≥10X)

More lines, main results first:

Row | pEC50 [1] | pEC50 [2] | SMILES | CFTR G542X ACTIVITY Fold 10 μM G-418 [1] | CFTR R1162X ACTIVITY Fold 10 μM G-418 [2]
14 | > 6.00 | > 6.00 | Cc1cccc(C(C)(F)F)c1COc1cnc(N2CCN(C(N)=O)CC2)nc1 | A′ (A′ = ≥10X) | A′ (A′ = ≥10X)
15 | > 6.00 | > 6.00 | Cc1cccc(C(F)(F)F)c1COc1cnc(-n2cc(-c3ccccn3)nn2)nc1 | A′ (A′ = ≥10X) | B′ (B′ = ≥5X to <10X)
16 | > 6.00 | > 6.00 | Cc1cccc(C(F)(F)F)c1COc1cnc(-n2nnc3ccccc32)nc1 [1-[5-[[2-methyl-6-(trifluoromethyl)phenyl]methoxy]pyrimidin-2-yl]benzotriazole] | A′ (A′ = ≥10X) | A′ (A′ = ≥10X)
17 | 5.00 to 6.00 | 5.00 to 6.00 | OCc1cc(-c2ncc(OCc3c(Cl)cccc3Cl)cn2)[nH]n1 [Compound 252, [5-[5-[(2,6-dichlorophenyl)methoxy]pyrimidin-2-yl]-1H-pyrazol-3-yl]methanol] | A′ (A′ = ≥10X) | B′ (B′ = ≥5X to <10X)
18 | > 6.00 | > 6.00 | CC1CN(c2ncc(OCc3c(Cl)cccc3Cl)cn2)CCC1O (stereo not shown) [1-[5-[(2,6-dichlorophenyl)methoxy]pyrimidin-2-yl]-3-methyl-piperidin-4-ol] | A′ (A′ = ≥10X) | A′ (A′ = ≥10X)
19 | 5.00 to 6.00 | 5.00 to 6.00 | OCC1CCCN(c2ncc(OCc3c(Cl)cccc3Cl)cn2)C1 (stereo not shown) [[1-[5-[(2,6-dichlorophenyl)methoxy]pyrimidin-2-yl]-3-piperidyl]methanol] | A′ (A′ = ≥10X) | A′ (A′ = ≥10X)
20 | > 6.00 | 5.00 to 6.00 | Cc1cccc(C(F)(F)F)c1COc1ccc(-n2cnc(CN)c2)nc1 | A′ (A′ = ≥10X) | A′ (A′ = ≥10X)
21 | > 6.00 | 5.00 to 6.00 | Cc1cccc(C(F)(F)F)c1COc1cnc(N2CCC(C(N)=O)C2)nc1 (stereo not shown) | A′ (A′ = ≥10X) | A′ (A′ = ≥10X)
22 | 5.00 to 6.00 | 5.00 to 6.00 | OCc1cn(-c2ncc(OCc3c(Cl)cccc3OC(F)F)cn2)cn1 | A′ (A′ = ≥10X) | B′ (B′ = ≥5X to <10X)
23 | 5.00 to 6.00 | < 5.00 | O=C1CCN(c2ncc(OCc3c(Cl)cccc3C(F)(F)F)cn2)C(=O)N1 | C′ (C′ = <5X) | –
24 | > 6.00 | 5.00 to 6.00 | Cc1cccc(C(F)(F)F)c1COc1cnc(N2CCC(O)(c3ccccn3)CC2)nc1 | A′ (A′ = ≥10X) | A′ (A′ = ≥10X)
25 | < 5.00 | 5.00 to 6.00 | NC1(CO)CCN(c2ncc(OCc3c(Cl)cccc3C(F)(F)F)cn2)C1 (stereo not shown) | A′ (A′ = ≥10X) | B′ (B′ = ≥5X to <10X)
26 | > 6.00 | > 6.00 | OCc1nnc(-c2ccc(OCc3c(Cl)cccc3C(F)(F)F)cn2)o1 | C′ (C′ = <5X) | C′ (C′ = <5X)
27 | > 6.00 | 5.00 to 6.00 | OCc1cn(-c2ccc(OCc3c(Cl)cccc3C(F)(F)F)cn2)cn1 | A′ (A′ = ≥10X) | A′ (A′ = ≥10X)
28 | > 6.00 | > 6.00 | Cc1cccc(C(F)(F)F)c1COc1cnc(N2CCO[C@@H](CN)C2)nc1 | A′ (A′ = ≥10X) | A′ (A′ = ≥10X)
29 | 5.00 to 6.00 | 5.00 to 6.00 | NC(=O)C1CN(c2ncc(OCc3c(Cl)cccc3C(F)(F)F)cn2)CC(=O)N1 (stereo not shown) | C′ (C′ = <5X) | C′ (C′ = <5X)
30 | > 6.00 | > 6.00 | O=C1CN(c2ccc(OCc3c(Cl)cccc3C(F)(F)F)cn2)C(=O)N1 | A′ (A′ = ≥10X) | A′ (A′ = ≥10X)
31 | < 5.00 | < 5.00 | Cc1cccc(C(F)(F)F)c1COc1cnc(N2C(=O)CN(C)C2=O)nc1 | B′ (B′ = ≥5X to <10X) | C′ (C′ = <5X)
